{"source": "ChEMBL document CHEMBL5500406", "about": "“Discovery of Novel Proteolysis-Targeting Chimera Molecules as Degraders of Programmed Cell Death-Ligand 1 for Breast Cancer Therapy” (J Med Chem, 2024)", "key": {"4T1 [1]": {"test_system": "4T1", "test": "Antitumor activity against mouse 4T1 cells allografted in BALB/c mouse at 60 mg/kg, ip qd for 15 days in presence of Paclitaxel relative to control", "assay_type": "functional", "conditions": "4T1, 360 h, time 15 day, read-out: TGI"}, "4T1 [2]": {"test_system": "4T1", "test": "Antitumor activity against mouse 4T1 cells allografted in BALB/c mouse at 60 mg/kg, ip qd for 15 days relative to control", "assay_type": "functional", "conditions": "4T1, 360 h, time 15 day, read-out: TGI"}, "[3]": {"test": "[…] bioavailability in Sprague-Dawley rat at 30 mg/kg, ip measured for 24 hrs by LC-MS/MS analysis", "assay_type": "ADME, organism-based", "conditions": "in vivo"}, "[4]": {"test": "Toxicity in BALB/c mouse allografted with mouse 4T1 cells assessed as pathological change in kidney at 30 to 60 mg/kg, ip qd for 15 days by H and E staining based analysis", "assay_type": "organism-based", "conditions": "in vivo, 360 h, dose 30-60 mg/kg, time 15 day"}, "[5]": {"molecular_target": "T1, Protein cereblon/Programmed cell death 1 ligand 1 (Mus musculus) (UniProt Q9EP73+Q8C7D2)", "T1 sequence (Q8C7D2 whole entry partner)": "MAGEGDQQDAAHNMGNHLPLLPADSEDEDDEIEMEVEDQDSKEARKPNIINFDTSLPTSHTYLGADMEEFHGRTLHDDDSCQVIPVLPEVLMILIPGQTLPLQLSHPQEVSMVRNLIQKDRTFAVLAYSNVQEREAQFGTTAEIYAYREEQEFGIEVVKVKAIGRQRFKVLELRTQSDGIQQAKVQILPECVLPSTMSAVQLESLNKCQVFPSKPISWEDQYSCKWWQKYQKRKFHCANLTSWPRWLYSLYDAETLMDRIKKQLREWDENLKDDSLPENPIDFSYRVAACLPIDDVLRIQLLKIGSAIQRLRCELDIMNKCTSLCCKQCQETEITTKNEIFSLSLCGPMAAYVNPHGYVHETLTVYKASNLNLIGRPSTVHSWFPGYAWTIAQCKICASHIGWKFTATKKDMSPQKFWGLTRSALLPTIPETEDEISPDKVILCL", "T1 sequence (Q9EP73 19-290 limits assumed)": "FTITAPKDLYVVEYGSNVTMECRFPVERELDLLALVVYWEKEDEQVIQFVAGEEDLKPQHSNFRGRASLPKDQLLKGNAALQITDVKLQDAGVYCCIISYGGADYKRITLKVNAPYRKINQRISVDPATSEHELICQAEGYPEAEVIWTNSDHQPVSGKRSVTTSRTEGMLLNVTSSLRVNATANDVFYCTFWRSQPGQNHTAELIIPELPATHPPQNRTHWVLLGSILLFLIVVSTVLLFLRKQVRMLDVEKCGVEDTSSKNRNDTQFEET", "test": "PROTAC activity at CRBN/PD-L1 in mouse 4T1 cells assessed as reduction in green fluorescence in cytoplasm at 0.312 uM incubated for 24 hrs by immunofluorescence analysis", "assay_type": "subcellular"}, "[6]": {"test": "Toxicity in BALB/c mouse allografted with mouse 4T1 cells assessed as pathological change in heart at 60 mg/kg, ip qd for 15 days in presence of Paclitaxel by H and E staining based analysis", "assay_type": "organism-based", "conditions": "in vivo, 360 h, time 15 day"}, "4T1 [7]": {"test_system": "4T1", "test": "Antitumor activity against mouse 4T1 cells allografted in BALB/c mouse assessed as reduction in tumor weight at 30 to 60 mg/kg, ip qd for 15 days", "assay_type": "functional, organism-based", "conditions": "dose 30-60 mg/kg, time 15.0 day"}, "[8]": {"molecular_target": "T2, Protein cereblon/Programmed cell death 1 ligand 1 (Homo sapiens) (UniProt Q9NZQ7+Q96SW2)", "T2 sequence (Q96SW2 whole entry, looked up)": "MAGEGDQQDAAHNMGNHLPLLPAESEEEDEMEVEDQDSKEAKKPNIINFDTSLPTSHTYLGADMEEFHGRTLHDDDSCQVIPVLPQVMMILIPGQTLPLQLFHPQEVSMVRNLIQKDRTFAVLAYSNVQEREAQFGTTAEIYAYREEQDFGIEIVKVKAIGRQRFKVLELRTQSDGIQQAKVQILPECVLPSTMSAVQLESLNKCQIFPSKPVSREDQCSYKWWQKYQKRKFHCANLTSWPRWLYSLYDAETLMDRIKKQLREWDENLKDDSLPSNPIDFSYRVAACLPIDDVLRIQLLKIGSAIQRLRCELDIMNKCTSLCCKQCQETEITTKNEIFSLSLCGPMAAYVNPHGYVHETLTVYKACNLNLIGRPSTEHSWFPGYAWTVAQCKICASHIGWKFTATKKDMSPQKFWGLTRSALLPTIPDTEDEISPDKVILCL", "T2 sequence (Q9NZQ7 whole entry, looked up)": "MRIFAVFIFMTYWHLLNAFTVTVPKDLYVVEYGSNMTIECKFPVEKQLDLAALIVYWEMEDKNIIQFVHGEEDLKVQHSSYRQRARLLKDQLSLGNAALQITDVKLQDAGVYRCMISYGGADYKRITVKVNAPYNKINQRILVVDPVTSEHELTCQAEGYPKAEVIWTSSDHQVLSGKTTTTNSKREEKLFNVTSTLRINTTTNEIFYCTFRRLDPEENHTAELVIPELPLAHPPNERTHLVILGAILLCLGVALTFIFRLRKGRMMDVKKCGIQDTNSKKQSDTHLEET", "test": "PROTAC activity at CRBN/PD-L1 in human NCI-H2228 cells assessed as protein degradation at >=5 uM measured for 24 hrs by Western blot analysis", "assay_type": "cell-based"}, "[9]": {"molecular_target": "T1, Protein cereblon/Programmed cell death 1 ligand 1 (Mus musculus)", "test": "PROTAC activity at CRBN/PD-L1 in mouse 4T1 cells assessed as protein degradation at 0.078 to 0.312 uM incubated for 24 hrs by flow cytometry", "assay_type": "cell-based", "conditions": "dose 0.078-0.312 µM"}, "4T1 [10]": {"test_system": "4T1", "test": "Antitumor activity against mouse 4T1 cells allografted in BALB/c mouse assessed as increase in IFN-gamma mRNA level in tumor at 60 mg/kg, ip qd for 15 days by qRT-PCR analysis", "assay_type": "functional, organism-based", "conditions": "time 15.0 day"}, "[11]": {"molecular_target": "Programmed cell death 1 ligand 1 (Mus musculus, UniProt Q9EP73)", "sequence (Q9EP73 whole entry)": "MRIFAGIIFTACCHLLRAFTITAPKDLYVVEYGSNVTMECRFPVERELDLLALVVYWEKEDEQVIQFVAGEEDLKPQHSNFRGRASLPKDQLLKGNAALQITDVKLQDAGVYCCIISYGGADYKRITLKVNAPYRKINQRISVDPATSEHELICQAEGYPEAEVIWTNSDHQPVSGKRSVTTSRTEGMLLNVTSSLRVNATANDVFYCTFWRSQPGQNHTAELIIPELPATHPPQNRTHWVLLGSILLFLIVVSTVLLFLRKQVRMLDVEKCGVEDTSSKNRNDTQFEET", "test": "Binding affinity to mouse PD-L1 assessed as dissociation constant incubated for 15 mins by MST assay"}, "[12]": {"test": "Cmax in Sprague-Dawley rat at 30 mg/kg, ip measured for 24 hrs by LC-MS/MS analysis", "assay_type": "ADME, organism-based", "conditions": "in vivo"}, "[13]": {"molecular_target": "T1, Protein cereblon/Programmed cell death 1 ligand 1 (Mus musculus)", "test": "PROTAC activity at CRBN/PD-L1 in mouse 4T1 cells assessed as protein degradation at 0.312 uM incubated for 24 hrs in presence of siCRBN by Western blot analysis", "assay_type": "cell-based"}, "[14]": {"test": "Half life in Sprague-Dawley rat at 30 mg/kg, ip measured for 24 hrs by LC-MS/MS analysis", "assay_type": "ADME, organism-based", "conditions": "in vivo"}, "[15]": {"test": "Toxicity in BALB/c mouse allografted with mouse 4T1 cells assessed as pathological change in kidney at 60 mg/kg, ip qd for 15 days in presence of Paclitaxel by H and E staining based analysis", "assay_type": "organism-based", "conditions": "in vivo, 360 h, time 15 day"}, "[16]": {"molecular_target": "T2, Protein cereblon/Programmed cell death 1 ligand 1 (Homo sapiens)", "test": "PROTAC activity at CRBN/PD-L1 in human MDA-MB-231 cells assessed as protein degradation at >=5 uM measured for 24 hrs by Western blot analysis", "assay_type": "cell-based"}, "[17]": {"molecular_target": "Protein cereblon/Programmed cell death 1 ligand 1 (Mus musculus, UniProt Q9EP73+Q8C7D2)", "sequence (Q9EP73 whole entry)": "as above", "sequence (Q8C7D2 whole entry)": "as the sequence (Q8C7D2 whole entry partner) above", "test": "PROTAC activity at CRBN/PD-L1 in mouse 4T1 cells assessed as protein degradation incubated for 24 hrs by Western blot analysis", "assay_type": "cell-based"}, "[18]": {"test": "Toxicity in BALB/c mouse allografted with mouse 4T1 cells assessed as abnormality in routine blood analysis at 30 to 60 mg/kg, ip qd for 15 days", "assay_type": "organism-based", "conditions": "in vivo, 360 h, dose 30-60 mg/kg, time 15 day"}, "[19]": {"molecular_target": "T1, Protein cereblon/Programmed cell death 1 ligand 1 (Mus musculus)", "test": "PROTAC activity at CRBN/PD-L1 in mouse 4T1 cells assessed as protein degradation at 0.078 to 10 uM measured for 48 hrs by Western blot analysis", "assay_type": "cell-based", "conditions": "dose 0.078-10 µM"}, "4T1 [20]": {"test_system": "4T1", "test": "Antitumor activity against mouse 4T1 cells assessed as decrease in cell viability at 0.078 to 0.312 uM incubated for 24 hrs by LDH assay", "assay_type": "functional, cell-based", "conditions": "dose 0.078-0.312 µM"}, "[21]": {"test": "Tmax in Sprague-Dawley rat at 30 mg/kg, ip measured for 24 hrs by LC-MS/MS analysis", "assay_type": "ADME, organism-based", "conditions": "in vivo"}, "[22]": {"test": "Toxicity in BALB/c mouse allografted with mouse 4T1 cells assessed as abnormality in biochemical analysis at 30 to 60 mg/kg, ip qd for 15 days", "assay_type": "organism-based", "conditions": "in vivo, 360 h, dose 30-60 mg/kg, time 15 day"}, "4T1 [23]": {"test_system": "4T1", "test": "Antitumor activity against mouse 4T1 cells allografted in BALB/c mouse assessed as reduction in tumor weight at 60 mg/kg, ip qd for 15 days in presence of Paclitaxel", "assay_type": "functional, organism-based", "conditions": "time 15.0 day"}, "4T1 [24]": {"test_system": "4T1", "test": "Antitumor activity against mouse 4T1 cells allografted in BALB/c mouse assessed as reduction in tumor volume at 30 to 60 mg/kg, ip qd for 15 days", "assay_type": "functional, organism-based", "conditions": "dose 30-60 mg/kg, time 15.0 day"}, "[25]": {"test": "Toxicity in BALB/c mouse allografted with mouse 4T1 cells assessed as pathological change in liver at 30 to 60 mg/kg, ip qd for 15 days by H and E staining based analysis", "assay_type": "organism-based", "conditions": "in vivo, 360 h, dose 30-60 mg/kg, time 15 day"}, "4T1 [26]": {"test_system": "4T1", "test": "Antitumor activity against mouse 4T1 cells assessed as inhibition of cell viability incubated for 48 hrs by MTT assay", "assay_type": "functional, cell-based", "conditions": "4T1, 48 h"}, "[27]": {"test": "Clearance in Sprague-Dawley rat at 3 mg/kg, iv measured for 24 hrs by LC-MS/MS analysis", "assay_type": "ADME, organism-based", "conditions": "in vivo"}}, "note": "Calls of active or inactive are those of the source. The rule behind the calls is not given here.", "data": [{"smiles": "COc1nc(OCc2cccc(-c3ccccc3)c2C)ccc1CNCCNC(=O)CCCCCCCCNC(=O)COc1ccc(C2CCC(=O)NC2=O)cc1", "note": "(configuration not stated)", "values": [{"measurement": "inhibition in vivo at 60 mg/kg", "setting": "4T1 [1]", "result": 86.7, "unit": "%"}, {"measurement": "inhibition in vivo at 60 mg/kg", "setting": "4T1 [2]", "result": 83.2, "unit": "%"}, {"measurement": "bioavailability", "setting": "[3]", "result": 71.2, "unit": "%"}, {"measurement": "Activity", "setting": "[4]", "result": "Non-Toxic"}, {"measurement": "Activity", "setting": "[5]", "result": "Active"}, {"measurement": "Activity", "setting": "[6]", "result": "Non-Toxic"}, {"measurement": "Activity", "setting": "4T1 [7]", "result": "Active"}, {"measurement": "Activity", "setting": "[8]", "result": "Active"}, {"measurement": "Activity", "setting": "[9]", "result": "Active"}, {"measurement": "Activity", "setting": "4T1 [10]", "result": "Active"}, {"measurement": "Kd", "setting": "[11]", "result": 59.2, "unit": "µM"}, {"measurement": "Cmax", "setting": "[12]", "result": 0.217, "unit": "µg/mL"}, {"measurement": "Activity", "setting": "[13]", "result": "inactive"}, {"measurement": "half-life", "setting": "[14]", "result": 5.3, "unit": "h"}, {"measurement": "Activity", "setting": "[15]", "result": "Non-Toxic"}, {"measurement": "Activity", "setting": "[16]", "result": "Active"}, {"measurement": "DC50", "setting": "[17]", "result": 0.609, "unit": "µM"}, {"measurement": "Activity", "setting": "[18]", "result": "Non-Toxic"}, {"measurement": "Activity", "setting": "[19]", "result": "Active"}, {"measurement": "Activity", "setting": "4T1 [20]", "result": "Active"}, {"measurement": "Tmax", "setting": "[21]", "result": 2, "unit": "h"}, {"measurement": "Activity", "setting": "[22]", "result": "Non-Toxic"}, {"measurement": "Activity", "setting": "4T1 [23]", "result": "Active"}, {"measurement": "Activity", "setting": "4T1 [24]", "result": "Active"}, {"measurement": "Activity", "setting": "[25]", "result": "Non-Toxic"}, {"measurement": "IC50", "setting": "4T1 [26]", "result": 23.1, "unit": "µM"}, {"measurement": "clearance", "setting": "[27]", "result": 28.3, "unit": "L/h/kg"}]}]}
